Assay results from patent US7361638B2, “Pharmaceutical combination for the treatment of tissue damage owing to an arterial irrigation defect” (Centro de Ingenieria Genetica y Biotecnologia, priority 2001, dated 2008).
“Also recorded” adds a separate entry of the source. Marks after values point to notes of the source that are not given here. Non-standard residues stand in square brackets, D forms with d. No end group written: not given here.

Key:
[1] = test system: Intestinal Ischemia/Reperfusion Model; assay: Intestinal ischemia/reperfusion model (2 hours ischemia, 3 hours reperfusion); assay type: in vivo, Sprague Dawley rats; settings: 2 h ischemia, 3 h reperfusion
Procedure: Male Sprague Dawley (220-250 g) rats were randomly assigned to the following treatment groups: I: ischemia/normal saline. […] III: Ischemia/GHRP-6 100 μg/rat. IV: Ischemia/combination -EGF (5 μg)/GHRP-6 (2 μg)/rat. All the treatments were intraperitoneally administered 30 minutes prior to beginning the ischemia period. […] The artery was clamped for a period of 2 hours, thus provoking a severe ischemia time on the jejunum and ileum portions of the small intestine. Reperfusion was allowed for 3 hours. Rats were euthanized and subjected to complete autopsy. The small intestine was resected and the length of hemorrhagic mucosal and/or luminal damage was registered. Luminal content was flushed out with a standard volume of saline to determine the hemoglobin content. Intestinal mucosa was washed with warm normal saline, weighed and fragments used to determine total protein content by Lowry method. Other fragments were used for total DNA content and microscopic analysis. Villi/mucosal damage was microscopically analyzed as described by Chiu. This scale considers Grade 0 as intact mucosa progressing to Grade 5 as full-thickness denudation.

[2] = test system: rat model of renal bilateral ischemia/reperfusion; assay: Renal ischemia/reperfusion, second phase (3 hours ischemia, similar reperfusion time); assay type: in vivo, Wistar rats; settings: 3 h ischemia; for Urine output during the reperfusion period: EGF 20 μg, GHRP 50 μg, combination, mean and SD
Procedure: (§1) Renal arteries were clamped with microvascular clamps (Moria, Fine Science Tools, USA) for 60 minutes. After 3 hours of reperfusion the animals were monitored for another 30 minutes to establish renal functioning.
(§2) Glomerular filtration rate (GFR) and the renal plasmatic flow (RPF) were studied using molecular weight markers as inulin and p-amino hypuric. Clearance coefficients were determined as follows:
(§3) A catheter was fixed in the urinary bladder and the urethra was clamped. The free end of the catheter was inserted in a graduated tube and the urine volume was collected during 10 minutes.
(§4) Renal tissue samples were fixed in 10% buffered formalin, paraffin embedded, H&E stained and studied by independent pathologists using the following criteria: number of collapsed glomeruli, cortical hemorrhage, medullar hemorrhage, severe tubular damage, and severe interstitial damage.
During a second phase study, a larger ischemia period was introduced which allowed for studying the effect of the peptide in a more practical model with respect to the clinical practice. Kidneys were exposed to a 3 hours ischemia period and a similar reperfusion time.

[3] = test system: rat model of renal bilateral ischemia/reperfusion; assay: Renal bilateral ischemia/reperfusion, first phase (1 hour ischemia, 3 hour reperfusion); assay type: in vivo, Wistar rats; settings: 1 h ischemia, 3 h reperfusion; for Glomerular Filtration Rate / Renal Plasmatic Flow / Urine output during the reperfusion period: EGF 20 μg; for Glomerular Filtration Rate / Renal Plasmatic Flow: GHRP-6 50 μg, combination EGF 5 μg + GHRP-6 10 μg per rat i.p.; for Urine output during the reperfusion period: i.p. 30 min before ischemia, GHRP 50 μg, combination EGF 5 μg + GHRP-6 10 μg per rat, mean and SD; for Renal failure / oliguria, result in words: versus saline-treated ischemic controls
Procedure: The potential nephroprotective effects of each of the peptides alone or in combination was studied in a rat model of renal bilateral ischemia/reperfusion. In a first phase trial, a ischemia period of 1 hour followed by a 3 hour reperfusion period was established. Female Wistar rats (200-220 g) were randomly assigned to the following experimental groups (N=10):
Group II: Ischemic and normal saline solution 0.9%.
Group IV: Ischemic and GHRP −6-50 μg/rat.
All the treatments were intraperitoneally administered 30 minutes before ischemia.
as §1, §2
Uv(m) maximal urine volume per minute. […]
as §3
Renal tissue samples were homogenized in KCI/histidine (pH7.3) buffer and the supernatant was used to measure the activity of the enzymes PLA2, catalase, as the MDA reactive metabolite.
as §4, with “damage. […] GHRP-6 intervention increased urine formation 4 times as compared to saline treated animals, which argues in favor of renal functional protection.” for “damage.”

[4] = test system: Experimental Model of Multiple Organ Damage by Extensive Burns; assay: Multiple organ damage by extensive burns (25% body surface scald), intestinal regeneration; assay type: in vivo, Balb/c mice; settings: for Final weight (body weight) / % Increase of body weight: 10th day following scalding; for Final weight (body weight): after 20 administrations, table prints EGF 0.01 μg, GHRP 0.01 μg, mean and SD, in g (unit assumed); for Crypts depth / No. of crypts in fission (×200) / Villous height / No. of metaphases per crypt (×200): day 10 post-scalding; for % Increase of body weight: initial to final weight; for No. of metaphases per crypt (×200): vincristine 1 mg/kg six hours prior to death
Procedure: The dorsal region of Balb/c mice (22-25 g) was depilated and subjected to hypodermic scalding involving a 25% of body surface area, by immersion in equilibrated water at 95-97° C. for 5 seconds. All the mice received 1.5 ml of normal saline solution as fluid resuscitation immediately after. This animal model had been previously established and calibrated in our laboratory, and is useful to our goals as extensive internal changes are steadily reproduced. On the next 24 hours the surviving mice were randomly assigned to the following groups: Reference. Sham burned mice receiving saline 0.9% (N=5). Scalded receiving only normal saline 0.9%. […] Scalded and treated with GHRP-6 (N=9; 0.1 μg GHRP-6/animal). Scalded, treated with the peptide combination (N=10). […] Administrations were done twice a day and until day 10 post-scalding. Once the treatments were completed, animals were weighed again and euthanized for necropsy and microscopic examination. Six hours prior to death, every mouse received an injection of vincristine (1 mg/kg) to arrest cells on metaphase. Intestines were resected, flushed and weighed. Fragments were collected for total DNA and protein content. Other fragments were formalin fixed and used for routine processing or intestinal microdissection of villi and crypts. Morphometric procedures on the microscopic slides were derived from the […] image processing system. The following parameters were considered in this study: Animal weight. Intestinal weight, protein and DNA content. Number of cells in metaphase per crypt. Number of branching crypts. Villous height. Crypts depth.

[5] = test system: Intestinal Ischemia/Reperfusion Model; assay: Survival after intestinal ischemia/reperfusion, monitored for 96 hours; assay type: in vivo, Sprague Dawley rats; settings: 96 hours of reperfusion; N = 10; EGF 500 μg, GHRP-6 100 μg, EGF 5 μg + GHRP-6 2 μg
Procedure: In order to fully elucidate the protective effect of the combination treatment in this model of intestinal ischemia/reperfusion, survival was monitored until 96 hours of reperfusion.
A second and independent experiment was conducted in order to learn if the combination stimulated animals' survival. Experimental methodology is as described above. All the rats received an intraperitoneal injection of lactated Ringer following wound closure. Animals were monitored for 96 hours once reperfusion was initiated. […] (Table 9).

[6] = test system: gastric mucosa of animals exposed to a severe systemic stress; assay: Acute gastric stress damage model (cold swim and restraint); assay type: in vivo, OF-1 mice
Procedure: Adult, male OF-1 mice (20-23 g) were randomly assigned to receive GHRP-6 (0.1 μg/animal) or normal saline solution 0.9% (both i.p.). Ten to thirty minutes later animals were forced to swim in cold water for 30 minutes and later restrained for another 20 minute period at 4° C. Animals were thereafter anesthetized and euthanized for gastric mucosa inspection. Samples were fixed in 10% buffered formalin and H&E, and PAS stained for microscopic examination. Erosion, hemorrhage, and ulceration were the gross pathology criteria considered in the experiment (Playford RJ. Peptides and gastrointestinal mucosa integrity. Gut 1995, 37: 595-597). Microscopic ulceration was only considered when deeper than the first third of the glandular mucosa. Luminal bleeding was studied by measuring hemoglobin by the cyano metahemoglobin method (Reactivos Spinreact, Barcelona). Data were expressed in g/dL. All determinations were done in a blind fashion using a sham group.

[7] = EGF 500 μg, GHRP-6 100 μg, combination EGF 5 μg + GHRP-6 2 μg per rat i.p.
[8] = GHRP-6 0.1 μg/animal i.p. 10-30 min before stress, 20 mice per group

Row | Substance | Intestinal mucosal protection, result in words [1] | Nephroprotection / urine volume, result in words [2] | Percent of animals/group showing Cortical Hemorrhage [2] | Percent of animals/group showing Damaged Glomeruli [2] | Percent of animals/group showing Interstitial Damage [2] | Percent of animals/group showing Medullar Hemorrhage [2] [%] | Urine output during the reperfusion period [2] | Glomerular Filtration Rate [3] [ml/min/100 g] | Renal Plasmatic Flow [3] [ml/min/100 g] | Urine output during the reperfusion period [3] | Renal failure / oliguria, result in words [3] | Final weight (body weight) [4] | Crypts depth [4] [μm] | No. of crypts in fission (×200) [4] | Villous height [4] [μm] | % Increase of body weight [4] [%] | No. of metaphases per crypt (×200) [4] | other results
1 | EGF: Epidermal Growth Factor of natural, synthetic or recombinant origins | minimal protection | negligible and contains hemoglobin | 70% | 80% | 80% | 80 | 83 ± 21 | 0.3 ± 0.15 | 1.2 ± 0.61 | 114 ± 51 | attenuated the oliguria; also recorded: partially attenuate renal failure | 28.2 ± 3.3 | 48 ± 9 | 25 ± 8 | 118.7 ± 19 | 27 | 101 ± 35 | DMA content [1, 7]: 0.4 ± 0.11 µg/cm; Luminal hemoglobin [1, 7]: 3.5 ± 1.02 g/dL; Mucosal Weight [1, 7]: 10.7 ± 4.5 g; Proteins Content [1, 7]: 1.08 ± 0.6 mg/cm; % of intestinal damage ([1]; i.p. 30 min before ischemia, EGF 500 μg, GHRP-6 100 μg, combination EGF 5 μg + GHRP-6 2 μg per rat, mean and SD): 78.7 ± 2.8%; Glomerular Filtration Rate [2]: 0.24 ± 0.15 ml/min/100 g; Renal Plasmatic Flow [2]: 0.6 ± 0.05 ml/min/100 g
2 | H[dW]AW[dF]K-NH2 [GHRP-6] | partial protection | Partial nephroprotection | 40♦ percent | 60♦ percent | 30♦ percent | 80 | 168 ± 33 | 0.46 ± 0.23 | 1.88 ± 0.8 | 208 ± 47 | partially attenuate renal failure | 28.4 ± 1.8 | 40.8 ± 13 | 19 ± 6 | 99.2 ± 10 | 23 | 59 ± 12 | Percent of animals/group showing Tubular Damage [2]: 50♦ percent; Survival (%) [5]: 40%; Epithelial Erosion, number of animals [6, 8]: 6; Epithelial Erosion, percent of animals [6, 8]: 30%; Luminal Hemorrhage, number of animals [6, 8]: 0 (0%)*; Luminal Hemorrhage, percent of animals [6, 8]: 0 (0%)*; Mucosal Hemorrhage, number of animals [6, 8]: 0 (0%)*; Mucosal Hemorrhage, percent of animals [6, 8]: 0 (0%)*; Total of ulcers ([6]; GHRP-6 0.1 μg/animal i.p., 20 mice per group): 3*; Luminal hemoglobin ([6]; GHRP-6 0.1 μg/animal i.p., cyano metahemoglobin method): 0* g/dL; Increase of urine formation compared to saline treated animals ([3]; GHRP-6 50 μg/rat i.p.): 4 times
